From patent US20170334934A1, “Macrocyclic picolinamides as fungicides” (DOW AGROSCIENCES LLC, priority 2014, published 2017)
Like-named read-outs stand apart in the source and are kept apart here.

Legend:
[1] = tested on: Mycosphaerella graminicola; Anamorph: Zymoseptoria tritici; assay: Fungicidal activity: Leaf Blotch of Wheat (SEPTTR), wheat seedlings; type: in vivo; settings: Low Volume (121.5 g/H), wheat
Experimental: Example A: Evaluation of Fungicidal Activity: Leaf Blotch of Wheat (Mycosphaerella graminicola; Anamorph: Zymoseptoria tritici; Bayer Code […]) Technical grades of materials were dissolved in acetone, which were then mixed with nine volumes of water containing 110 ppm Triton X-100. The fungicide solutions were applied onto wheat seedlings using an automated booth sprayer to run-off. All sprayed plants were allowed to air dry prior to further handling. All fungicides were evaluated using the aforementioned method for their activity vs. all target diseases, unless stated otherwise. Wheat leaf blotch and brown rust activity were also evaluated using track spray applications, in which case the fungicides were formulated as EC formulations, containing 0.1% Trycol 5941 in the spray solutions. Wheat plants (variety Yuma) were grown from seed in a greenhouse in 50% mineral soil/50% soil-less Metro mix until the first leaf was fully emerged, with 7-10 seedlings per pot. These plants were inoculated with an aqueous spore suspension of Zymoseptoria tritici either prior to or after fungicide treatments. After inoculation the plants were kept in 100% relative humidity (one day in a dark dew chamber followed by two to three days in a lighted dew chamber at 20° C.) to permit spores to germinate and infect the leaf. The plants were then transferred to a greenhouse set at 20° C. for disease to develop. When disease symptoms were fully expressed on the 1st leaves of untreated plants, infection levels were assessed on a scale of 0 to 100 percent disease severity. Percent disease control was calculated using the ratio of disease severity on treated plants relative to untreated plants.

Puccinia triticina = assay: Fungicidal activity: Wheat Brown Rust (PUCCRT), wheat seedlings; type: in vivo; settings: Low Volume (121.5 g/H)
Experimental: Technical grades of materials were dissolved in acetone, which were then mixed with nine volumes of water containing 110 ppm Triton X-100. The fungicide solutions were applied onto wheat seedlings using an automated booth sprayer to run-off. All sprayed plants were allowed to air dry prior to further handling. All fungicides were evaluated using the aforementioned method for their activity vs. all target diseases, unless stated otherwise. Wheat leaf blotch and brown rust activity were also evaluated using track spray applications, in which case the fungicides were formulated as EC formulations, containing 0.1% Trycol 5941 in the spray solutions. Wheat plants (variety Yuma) were grown from seed in a greenhouse in 50% mineral soil/50% soil-less Metro mix until the first leaf was fully emerged, with 7-10 seedlings per pot. These plants were inoculated with an aqueous spore suspension of Zymoseptoria tritici either prior to or after fungicide treatments. After inoculation the plants were kept in 100% relative humidity (one day in a dark dew chamber followed by two to three days in a lighted dew chamber at 20° C.) to permit spores to germinate and infect the leaf. The plants were then transferred to a greenhouse set at 20° C. for disease to develop. When disease symptoms were fully expressed on the 1st leaves of untreated plants, infection levels were assessed on a scale of 0 to 100 percent disease severity. Percent disease control was calculated using the ratio of disease severity on treated plants relative to untreated plants. Example B: Evaluation of Fungicidal Activity: Wheat Brown Rust (Puccinia triticina; Synonym: Puccinia recondita f. sp. tritici; Bayer Code PUCCRT) Wheat plants (variety Yuma) were grown from seed in a greenhouse in 50% mineral soil/50% soil-less Metro mix until the first leaf was fully emerged, with 7-10 seedlings per pot. These plants were inoculated with an aqueous spore suspension of Puccinia triticina either prior to or after fungicide treatments. After inoculation the plants were kept in a dark dew room at 22° C. with 100% relative humidity overnight to permit spores to germinate and infect the leaf. The plants were then transferred to a greenhouse set at 24° C. for disease to develop. Fungicide formulation, application and disease assessment followed the procedures as described in the Example A.

[2] = 24 h, 1 Day Protectant, read-out: SEPTTR disease control rating, 1DP
[3] = 72 h, 3 Day Curative, read-out: SEPTTR disease control rating, 3DC
[4] = 24 h, 1 Day Protectant, read-out: PUCCRT disease control rating, 1DP
[5] = 72 h, 3 Day Curative, read-out: PUCCRT disease control rating, 3DC

SMILES | pest or weed control at 121.5 g/ha [1, 2] [%] | pest or weed control at 121.5 g/ha [1, 3] [%] | pest or weed control at 121.5 g/ha (Puccinia triticina; [4]) [%] | pest or weed control at 121.5 g/ha (Puccinia triticina; [5]) [%]
COc1ccnc(C(=O)N[C@H]2CCO[C@H](Cc3ccc(F)cc3)[C@@H](Oc3ccccc3)[C@H](C)OC2=O)c1OC(C)=O [Compound 75] | > 70 | < 70 | > 70 | > 70
COc1ccnc(C(=O)N[C@H]2CCO[C@H](Cc3ccc(F)cc3)[C@@H](OC(=O)C(C)C)[C@H](C)OC2=O)c1OC(C)=O [Compound 76] | > 70 | > 70 | > 70 | > 70
COc1ccnc(C(=O)N[C@H]2CCO[C@H](Cc3ccc(F)cc3)[C@@H](OCC(C)C)[C@H](C)OC2=O)c1OC(C)=O [Compound 77] | > 70 | > 70 | > 70 | > 70
C=CCO[C@H]1[C@H](C)OC(=O)[C@@H](NC(=O)c2nccc(OC)c2OCOC(C)=O)CCO[C@@H]1Cc1ccc(F)cc1 [Compound 78] | < 70 | < 70 | > 70 | > 70
CCCO[C@H]1[C@H](C)OC(=O)[C@@H](NC(=O)c2nccc(OC)c2OCOC(C)=O)CCO[C@@H]1Cc1ccc(F)cc1 [Compound 79, ((2-(((2R,3S,4S,7S)-2-(4-fluorobenzyl)-4-methyl-6-oxo-3-propoxy-1,5-dioxonan-7-yl)carbamoyl)-4-methoxypyridin-3-yl)oxy)methyl acetate] | > 70 | > 70 | > 70 | > 70
C=CCO[C@H]1[C@H](C)OC(=O)[C@@H](NC(=O)c2nccc(OC)c2OC(C)=O)CCO[C@@H]1Cc1ccc(F)cc1 [Compound 80] | < 70 | < 70 | < 70 | < 70
CCCO[C@H]1[C@H](C)OC(=O)[C@@H](NC(=O)c2nccc(OC)c2OC(C)=O)CCO[C@@H]1Cc1ccc(F)cc1 [Compound 81, 2-(((2R,3S,4S,7S)-2-(4-fluorobenzyl)-4-methyl-6-oxo-3-propoxy-1,5-dioxonan-7-yl)carbamoyl)-4-methoxypyridin-3-yl acetate] | < 70 | < 70 | < 70 | < 70
COc1ccnc(C(=O)N[C@H]2CCO[C@H](Cc3ccccc3)[C@@H](Oc3ccccc3)[C@H](C)OC2=O)c1OCOC(C)=O [Compound 82] | > 70 | > 70 | > 70 | > 70
COc1ccnc(C(=O)N[C@H]2CCO[C@H](Cc3ccccc3)[C@@H](Oc3ccccc3)[C@H](C)OC2=O)c1OC(C)=O [Compound 83] | > 70 | > 70 | > 70 | > 70
COc1ccnc(C(=O)N[C@H]2CCO[C@H](CC3CCCC3)[C@@H](Oc3ccccc3)[C@H](C)OC2=O)c1OCOC(C)=O [Compound 85] | > 70 | > 70 | > 70 | > 70
COc1ccc(C[C@H]2OCC[C@H](NC(=O)c3nccc(OC)c3OCOC(C)=O)C(=O)O[C@@H](C)[C@@H]2OCC2CC2)cc1 [Compound 86] | > 70 | < 70 | > 70 | > 70
COc1ccc(C[C@H]2OCC[C@H](NC(=O)c3nccc(OC)c3OCOC(C)=O)C(=O)O[C@@H](C)[C@@H]2Oc2ccccc2)cc1 [Compound 87] | > 70 | < 70 | > 70 | > 70
C=C(C)CO[C@H]1[C@H](C)OC(=O)[C@@H](NC(=O)c2nccc(OC)c2OCOC(C)=O)CCO[C@@H]1CC [Compound 88] | < 70 | < 70 | > 70 | > 70
CC[C@H]1OCC[C@H](NC(=O)c2nccc(OC)c2OCOC(C)=O)C(=O)O[C@@H](C)[C@@H]1OCC(C)C [Compound 89] | > 70 | > 70 | > 70 | > 70
CC[C@H]1OCC[C@H](NC(=O)c2nccc(OC)c2OCOC(C)=O)C(=O)O[C@@H](C)[C@@H]1Oc1ccccc1 [Compound 90] | > 70 | > 70 | > 70 | > 70
CC[C@H]1OCC[C@H](NC(=O)c2nccc(OC)c2OCOC(C)=O)C(=O)O[C@@H](C)[C@@H]1Oc1ccc(F)cc1 [Compound 91] | > 70 | > 70 | > 70 | > 70
C=C(C)CO[C@H]1[C@H](C)OC(=O)[C@@H](NC(=O)c2nccc(OC)c2OC(C)=O)CCO[C@@H]1CC [Compound 92] | < 70 | < 70 | > 70 | > 70
CC[C@H]1OCC[C@H](NC(=O)c2nccc(OC)c2OC(C)=O)C(=O)O[C@@H](C)[C@@H]1OCC(C)C [Compound 93] | > 70 | > 70 | > 70 | > 70
CC[C@H]1OCC[C@H](NC(=O)c2nccc(OC)c2OC(C)=O)C(=O)O[C@@H](C)[C@@H]1Oc1ccccc1 [Compound 94] | > 70 | > 70 | > 70 | > 70
CC[C@H]1OCC[C@H](NC(=O)c2nccc(OC)c2OC(C)=O)C(=O)O[C@@H](C)[C@@H]1OC(=O)C(C)C [Compound 95] | < 70 | > 70 | > 70 | > 70
COc1ccnc(C(=O)N[C@H]2CCOC[C@@H](OCc3ccccc3)[C@H](C)OC2=O)c1OCOC(C)=O [Compound 96] | < 70 | > 70 | > 70 | > 70
COc1ccnc(C(=O)N[C@H]2CCOC[C@@H](OCC(C)C)[C@H](C)OC2=O)c1OCOC(C)=O [Compound 97] | > 70 | > 70 | > 70 | > 70
COc1ccnc(C(=O)N[C@H]2CCOC[C@@H](OC(=O)C(C)C)[C@H](C)OC2=O)c1OCOC(C)=O [Compound 98] | < 70 | < 70 | < 70 | < 70
COc1ccnc(C(=O)N[C@H]2CCOC[C@@H](Oc3ccccc3)[C@H](C)OC2=O)c1OCOC(C)=O [Compound 99] | < 70 | < 70 | > 70 | > 70
COc1ccnc(C(=O)N[C@H]2CCOC[C@@H](Oc3ccccc3)[C@H](C)OC2=O)c1OC(C)=O [Compound 100] | < 70 | > 70 | > 70 | > 70
